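Cells were grown in 96-well plates and exposed to each compound for 48 hours at five concentrations; endpoints were interpolated linearly between bracketing concentrations, or set to the highest concentration if not reached. GI50 is the concentration that inhibits growth by half.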 Active and inactive are the calls of the source. Rule as the data show it: active = GI50 up to about 1.1 µM and inactive = higher.
Tests used:
Assay in all cases: NCI-60 cell line screen, 48 h
[1] = test system: 786-0
[2] = test system: MCF7
[3] = test system: COLO 205
[4] = test system: NCI-H226
[5] = test system: UO-31
[6] = test system: MDA-MB-231
[7] = test system: MDA-N
[8] = test system: SK-MEL-28
[9] = test system: SK-OV-3
[10] = test system: NCI-H460
[11] = test system: SK-MEL-2
[12] = test system: HT-29
[13] = test system: K562
[14] = test system: ACHN
[15] = test system: UACC-257
[16] = test system: EKVX
[17] = test system: LOX IMVI
[18] = test system: TK-10
[19] = test system: NCI-H522

SMILES | GI50 [1] | GI50 [2] | GI50 [3] | GI50 [4] | GI50 [5] | GI50 [6] | GI50 [7] | GI50 [8] | GI50 [9] | GI50 [10] | GI50 [11] | GI50 [12] | GI50 [13] | GI50 [14] | GI50 [15] | GI50 [16] | GI50 [17] | GI50 [18] | GI50 [19]
Cc1cccc(N/C(Sc2ccccc2)=C(/C(Cl)=C(Cl)Cl)[N+](=O)[O-])c1 | 16.9 µM (inactive) | 29.3 µM (inactive) | 15.6 µM (inactive) | 16.6 µM (inactive) | 14.7 µM (inactive) | 20.4 µM (inactive) | 19.4 µM (inactive) | 17.4 µM (inactive) | 20.5 µM (inactive) | 35 µM (inactive) | 28.1 µM (inactive) | 17.6 µM (inactive) | 20.3 µM (inactive) | 26.4 µM (inactive) | 20.8 µM (inactive) | 16.9 µM (inactive) |  |  | 
NC1CC(=O)c2cscc21 (centres undefined) | 15.1 µM (inactive) |  | 20.6 µM (inactive) |  | 10.3 µM (inactive) | > 100 µM (inactive) | > 100 µM (inactive) | 37.3 µM (inactive) | > 100 µM (inactive) | > 100 µM (inactive) | > 100 µM (inactive) | > 100 µM (inactive) | 42.1 µM (inactive) |  | 93.5 µM (inactive) | > 100 µM (inactive) | 31.8 µM (inactive) | 19.1 µM (inactive) | 
COc1c(-c2nc3ccc(N4CCN(C)CC4)nc3[nH]2)cc(OC)c2c1nc(CCl)n2C | 17.9 µM (inactive) |  | 14.4 µM (inactive) | 19.9 µM (inactive) | 16.5 µM (inactive) | 19.2 µM (inactive) | 30.5 µM (inactive) | 26.9 µM (inactive) | 28.8 µM (inactive) | 20.6 µM (inactive) | 11.6 µM (inactive) | 16.3 µM (inactive) | 29 µM (inactive) | 13.7 µM (inactive) | 22.6 µM (inactive) | 19.4 µM (inactive) | 10.8 µM (inactive) |  | 10.5 µM (inactive)
O=C(CSCC(=O)N/N=C/c1ccccc1)N/N=C\c1ccccc1 | > 100 µM (inactive) | > 100 µM (inactive) | > 100 µM (inactive) | > 100 µM (inactive) | > 100 µM (inactive) | > 100 µM (inactive) |  | > 100 µM (inactive) | > 100 µM (inactive) | > 100 µM (inactive) | > 100 µM (inactive) | > 100 µM (inactive) | > 100 µM (inactive) | > 100 µM (inactive) | > 100 µM (inactive) | > 100 µM (inactive) | > 100 µM (inactive) | > 100 µM (inactive) | > 100 µM (inactive)
CN(C)C(=S)N=C(Nc1ccccc1)Nc1ccccc1 | > 100 µM (inactive) |  | > 100 µM (inactive) | > 100 µM (inactive) | > 100 µM (inactive) |  |  | > 100 µM (inactive) | > 100 µM (inactive) | > 100 µM (inactive) | > 100 µM (inactive) | > 100 µM (inactive) | > 100 µM (inactive) | > 100 µM (inactive) | > 100 µM (inactive) | > 100 µM (inactive) | > 100 µM (inactive) | > 100 µM (inactive) | > 100 µM (inactive)
CN(C(=O)C1=CCCCCC1)c1ccccc1I | 27.8 µM (inactive) | 51.5 µM (inactive) | 15.8 µM (inactive) |  | 41.4 µM (inactive) | 67.8 µM (inactive) | 35.5 µM (inactive) | 37.5 µM (inactive) | 43.5 µM (inactive) | 32 µM (inactive) | 32.4 µM (inactive) |  | 59.2 µM (inactive) | 59.6 µM (inactive) | 44.6 µM (inactive) | 28.4 µM (inactive) | 28.9 µM (inactive) |  | 
C[C@@H](CO)C1=C(O)C(=O)c2c(ccc3c2CCCC3(C)C)C1=O | 55.3 µM (inactive) |  | 38.3 µM (inactive) | 28.2 µM (inactive) | 33.3 µM (inactive) | 61.4 µM (inactive) | 45.1 µM (inactive) | 30.8 µM (inactive) | 61.9 µM (inactive) |  | 23.2 µM (inactive) | 35.5 µM (inactive) | 30.3 µM (inactive) | 18.5 µM (inactive) | 32.1 µM (inactive) | 33.5 µM (inactive) | 59.4 µM (inactive) | 45.4 µM (inactive) | 15.5 µM (inactive)
CC1(C)CC(=O)C2(CC(CSc3ccccc3)C(CS(=O)(=O)c3ccccc3)C2)C(=O)C1 (centres undefined) | > 100 µM (inactive) | > 100 µM (inactive) | > 100 µM (inactive) | > 100 µM (inactive) | > 100 µM (inactive) | > 100 µM (inactive) |  | > 100 µM (inactive) | > 100 µM (inactive) |  | > 100 µM (inactive) | 78.3 µM (inactive) | > 100 µM (inactive) | > 100 µM (inactive) | > 100 µM (inactive) | > 100 µM (inactive) | > 100 µM (inactive) | > 100 µM (inactive) | > 100 µM (inactive)
O=C1O/C(=C(/Cl)c2cccc3ccccc23)c2ccccc21 | 82.2 µM (inactive) | 0.735 µM (active) | > 100 µM (inactive) |  | > 100 µM (inactive) |  | > 100 µM (inactive) | > 100 µM (inactive) | > 100 µM (inactive) | > 100 µM (inactive) |  | > 100 µM (inactive) | > 100 µM (inactive) |  | > 100 µM (inactive) | > 100 µM (inactive) |  | > 100 µM (inactive) | 52.1 µM (inactive)
C/N=C(\Nc1cccc(C(F)(F)F)c1)SCc1ccc(N=C=S)cc1 | 16.4 µM (inactive) |  | 16.6 µM (inactive) | 19.8 µM (inactive) | 15.1 µM (inactive) | 11.2 µM (inactive) | 14.8 µM (inactive) | 21 µM (inactive) | 20.2 µM (inactive) | 12.9 µM (inactive) | 12.3 µM (inactive) | 15.6 µM (inactive) | 20 µM (inactive) | 15.2 µM (inactive) | 14.3 µM (inactive) | 20.2 µM (inactive) | 4.66 µM (inactive) | 11.4 µM (inactive) | 10.4 µM (inactive)
CN(NC(=O)/C(=C\c1ccco1)NC(=O)c1ccccc1)c1cn[nH]c(=O)c1Cl | 41.3 µM (inactive) | > 100 µM (inactive) | > 100 µM (inactive) | 45.6 µM (inactive) | > 100 µM (inactive) | > 100 µM (inactive) |  | 36.6 µM (inactive) | > 100 µM (inactive) | > 100 µM (inactive) | 80.5 µM (inactive) | 58.6 µM (inactive) | 60.1 µM (inactive) | > 100 µM (inactive) | 48.8 µM (inactive) | > 100 µM (inactive) | 23.2 µM (inactive) | > 100 µM (inactive) | 28.1 µM (inactive)
COc1ccccc1-c1nc(O)c2ccccc2n1 | > 100 µM (inactive) | > 100 µM (inactive) | > 100 µM (inactive) | 68.1 µM (inactive) | > 100 µM (inactive) | > 100 µM (inactive) | > 100 µM (inactive) |  | > 100 µM (inactive) | > 100 µM (inactive) | > 100 µM (inactive) |  |  | > 100 µM (inactive) | > 100 µM (inactive) | 59.6 µM (inactive) |  |  | 

From ChEMBL document CHEMBL1201862, “PubChem BioAssay data set” (2004)
